Publication PMC9481106, “Design, synthesis and biological evaluation of 2,4-pyrimidinediamine derivatives as ALK and HDACs dual inhibitors for the treatment of ALK addicted cancer” (Journal of Enzyme Inhibition and Medicinal Chemistry, 2022)

What was measured:
HDAC1 = HDAC1 (Homo sapiens, UniProt Q13547); assay: enzyme inhibition assay with fluorescent assay kit; format: biochemical
[1] = target: ALK^wt (anaplastic lymphoma kinase) (Homo sapiens, UniProt Q9UM73); assay: enzyme inhibition assay with fluorescent assay kit; format: biochemical
Chain of ALK^wt (anaplastic lymphoma kinase) (Q9UM73 19-1620): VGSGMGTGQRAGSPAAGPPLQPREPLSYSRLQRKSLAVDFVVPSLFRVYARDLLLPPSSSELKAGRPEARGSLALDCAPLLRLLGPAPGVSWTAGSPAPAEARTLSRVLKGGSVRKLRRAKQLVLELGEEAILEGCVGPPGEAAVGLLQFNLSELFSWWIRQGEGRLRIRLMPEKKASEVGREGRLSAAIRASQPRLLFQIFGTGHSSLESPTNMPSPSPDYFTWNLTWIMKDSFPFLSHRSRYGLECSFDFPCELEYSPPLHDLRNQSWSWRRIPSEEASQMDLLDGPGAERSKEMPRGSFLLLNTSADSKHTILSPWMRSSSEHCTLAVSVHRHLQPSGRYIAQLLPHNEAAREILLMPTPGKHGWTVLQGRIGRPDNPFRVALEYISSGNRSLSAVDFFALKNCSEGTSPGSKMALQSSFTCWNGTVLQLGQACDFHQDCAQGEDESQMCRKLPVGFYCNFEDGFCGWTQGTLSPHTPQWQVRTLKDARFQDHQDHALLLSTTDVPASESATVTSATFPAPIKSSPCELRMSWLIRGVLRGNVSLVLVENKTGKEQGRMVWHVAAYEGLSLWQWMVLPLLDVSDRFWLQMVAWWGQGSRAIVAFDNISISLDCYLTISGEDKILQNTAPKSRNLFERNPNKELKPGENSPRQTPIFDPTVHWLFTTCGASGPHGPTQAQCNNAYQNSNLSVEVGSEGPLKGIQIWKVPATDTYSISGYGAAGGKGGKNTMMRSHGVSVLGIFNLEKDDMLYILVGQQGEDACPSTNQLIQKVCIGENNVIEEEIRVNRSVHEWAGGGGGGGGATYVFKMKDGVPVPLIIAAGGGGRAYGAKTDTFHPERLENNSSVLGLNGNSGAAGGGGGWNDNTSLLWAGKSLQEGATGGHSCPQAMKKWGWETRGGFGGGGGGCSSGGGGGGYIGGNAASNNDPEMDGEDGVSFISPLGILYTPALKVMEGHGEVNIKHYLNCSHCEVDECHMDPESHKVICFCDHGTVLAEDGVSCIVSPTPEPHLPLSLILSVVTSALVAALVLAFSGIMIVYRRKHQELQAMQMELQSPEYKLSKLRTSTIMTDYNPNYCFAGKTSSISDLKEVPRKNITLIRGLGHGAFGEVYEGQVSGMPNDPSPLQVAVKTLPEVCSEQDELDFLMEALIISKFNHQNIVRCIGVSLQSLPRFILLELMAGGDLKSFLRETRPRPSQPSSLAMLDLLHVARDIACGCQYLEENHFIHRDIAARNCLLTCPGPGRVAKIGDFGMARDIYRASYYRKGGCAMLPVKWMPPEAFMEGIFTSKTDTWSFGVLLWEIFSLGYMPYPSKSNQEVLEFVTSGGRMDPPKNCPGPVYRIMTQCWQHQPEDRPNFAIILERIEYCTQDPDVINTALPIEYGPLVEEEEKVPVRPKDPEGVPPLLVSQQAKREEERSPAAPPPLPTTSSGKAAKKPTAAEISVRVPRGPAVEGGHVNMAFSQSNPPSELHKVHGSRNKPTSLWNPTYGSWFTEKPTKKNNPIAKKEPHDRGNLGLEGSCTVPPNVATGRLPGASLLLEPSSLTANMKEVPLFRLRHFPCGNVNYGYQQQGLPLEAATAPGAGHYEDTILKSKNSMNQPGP

Chain of HDAC1 (Q13547 whole entry): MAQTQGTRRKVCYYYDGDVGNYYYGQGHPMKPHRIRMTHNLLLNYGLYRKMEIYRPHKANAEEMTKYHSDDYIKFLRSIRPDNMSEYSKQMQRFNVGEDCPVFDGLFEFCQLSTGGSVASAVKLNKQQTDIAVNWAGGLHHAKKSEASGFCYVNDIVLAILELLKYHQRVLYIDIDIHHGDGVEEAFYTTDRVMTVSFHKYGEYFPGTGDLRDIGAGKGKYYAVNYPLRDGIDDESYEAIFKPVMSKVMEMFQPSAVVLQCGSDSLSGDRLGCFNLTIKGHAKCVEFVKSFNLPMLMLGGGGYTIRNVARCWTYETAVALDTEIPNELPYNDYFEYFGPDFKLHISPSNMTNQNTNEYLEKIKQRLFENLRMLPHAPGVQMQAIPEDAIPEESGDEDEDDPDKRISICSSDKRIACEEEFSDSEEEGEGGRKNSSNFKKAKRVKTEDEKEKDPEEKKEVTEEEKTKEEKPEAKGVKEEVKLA

Compound CC(C)S(=O)(=O)c1ccccc1Nc1nc(Nc2ccc(C(=O)Nc3ccccc3N)cc2)ncc1Cl [12a, N-(2-aminophenyl)-4-((5-chloro-4-((2-(isopropylsulfonyl)phenyl)amino)pyrimidin-2-yl)amino)benzamide] has an IC50 (HDAC1) of 1450 nM and an IC50 [1] of 9.5 nM.
